Assay results published in ChEMBL document CHEMBL3885881, “DrugMatrix”.

Species on record: Rattus norvegicus
Test: DrugMatrix - Regimen: Daily Repeat
Assay type: toxicity, organism-based, Sprague-Dawley
Design: regimen Daily Repeat, gender Male, age 6-8 weeks
Settings: in vivo, po, route oral GAVAGE, […]; for ABSOLUTE BASOPHIL / ABSOLUTE EOSINOPHIL / ABSOLUTE LYMPHOCYTE / ABSOLUTE MONOCYTE / ABSOLUTE SEGMENTED NEUTROPHIL / BASOPHIL / EOSINOPHIL / ERYTHROCYTE COUNT / HEMATOCRIT / HEMOGLOBIN / LEUKOCYTE COUNT / LYMPHOCYTE / MEAN CORPUSCULAR HEMOGLOBIN / MEAN CORPUSCULAR HEMOGLOBIN CONCENTRATION / MEAN CORPUSCULAR VOLUME / MONOCYTE / NEUTROPHIL / NUCLEATED RED BLOOD CELLS / PLATELET COUNT: tissue Blood; for ALANINE AMINOTRANSFERASE / ALBUMIN / ALKALINE PHOSPHATASE / ASPARTATE AMINOTRANSFERASE / BLOOD UREA NITROGEN / CARBON DIOXIDE / CHLORIDE / CHOLESTEROL / CREATINE PHOSPHOKINASE / CREATININE / GLUCOSE / LACTATE DEHYDROGENASE / LIPASE / PHOSPHORUS / POTASSIUM / SODIUM / TOTAL BILIRUBIN / TOTAL PROTEIN / URIC ACID: tissue Plasma
[1] = 0 mg/kg, 72 h, dose level Control, time 3 day
[2] = 0 mg/kg, 120 h, dose level Control, time 5 day
[3] = 100 mg/kg, 72 h, dose level Low, time 3 day

CC(=O)Nc1ccc(O)cc1 [ACETAMINOPHEN]
ABSOLUTE BASOPHIL [1]: 0 CELLS/uL
ABSOLUTE EOSINOPHIL [1]: 0 CELLS/uL
ABSOLUTE LYMPHOCYTE [1]: 6275.67 CELLS/uL
ABSOLUTE MONOCYTE [1]: 40.67 CELLS/uL
ABSOLUTE SEGMENTED NEUTROPHIL [1]: 633.67 CELLS/uL
BASOPHIL [1]: 0%
EOSINOPHIL [1]: 0%
ERYTHROCYTE COUNT [1]: 5.2 x10E6/uL
HEMATOCRIT [1]: 32.78%
HEMOGLOBIN [1]: 12.98 G/DL
LEUKOCYTE COUNT [1]: 6.95 x10E3/uL
LYMPHOCYTE [1]: 90.17%
MEAN CORPUSCULAR HEMOGLOBIN [1]: 24.97 pg
MEAN CORPUSCULAR HEMOGLOBIN CONCENTRATION [1]: 39.62 G/DL
MEAN CORPUSCULAR VOLUME [1]: 63.03 fL
MONOCYTE [1]: 0.67%
NEUTROPHIL [1]: 9.17%
NUCLEATED RED BLOOD CELLS [1]: 0 /100WBC
PLATELET COUNT [1]: 1082.83 x10E3/uL
ALANINE AMINOTRANSFERASE [1]: 69.67 u/L
ALBUMIN [1]: 4.15 G/DL
ALKALINE PHOSPHATASE [1]: 430.5 u/L
ASPARTATE AMINOTRANSFERASE [1]: 90.83 u/L
BLOOD UREA NITROGEN [1]: 13 mg/dL
CARBON DIOXIDE [1]: 33 mmol/L
CHLORIDE [1]: 99.17 MEQ/L
CHOLESTEROL [1]: 70.5 mg/dL
CREATINE PHOSPHOKINASE [1]: 253.33 u/L
CREATININE [1]: 0.13 mg/dL
GLUCOSE [1]: 157.17 mg/dL
LACTATE DEHYDROGENASE [1]: 85 u/L
LIPASE [1]: 10 u/L
PHOSPHORUS [1]: 10.2 mg/dL
POTASSIUM [1]: 5.78 MEQ/L
SODIUM [1]: 144.12 MEQ/L
TOTAL BILIRUBIN [1]: 0.2 mg/dL
TOTAL PROTEIN [1]: 5.8 G/DL
URIC ACID [1]: 0.8 mg/dL
ABSOLUTE BASOPHIL [2]: 0 CELLS/uL
ABSOLUTE EOSINOPHIL [2]: 0 CELLS/uL
ABSOLUTE LYMPHOCYTE [2]: 10431 CELLS/uL
ABSOLUTE MONOCYTE [2]: 90.5 CELLS/uL
ABSOLUTE SEGMENTED NEUTROPHIL [2]: 1111.83 CELLS/uL
BASOPHIL [2]: 0%
EOSINOPHIL [2]: 0%
ERYTHROCYTE COUNT [2]: 5.51 x10E6/uL
HEMATOCRIT [2]: 34.67%
HEMOGLOBIN [2]: 13.5 G/DL
LEUKOCYTE COUNT [2]: 11.63 x10E3/uL
LYMPHOCYTE [2]: 89.67%
MEAN CORPUSCULAR HEMOGLOBIN [2]: 24.5 pg
MEAN CORPUSCULAR HEMOGLOBIN CONCENTRATION [2]: 38.95 G/DL
MEAN CORPUSCULAR VOLUME [2]: 62.87 fL
MONOCYTE [2]: 0.67%
NEUTROPHIL [2]: 9.67%
NUCLEATED RED BLOOD CELLS [2]: 0 /100WBC
PLATELET COUNT [2]: 1052.67 x10E3/uL
ALANINE AMINOTRANSFERASE [2]: 54.67 u/L
ALBUMIN [2]: 4.15 G/DL
ALKALINE PHOSPHATASE [2]: 359.83 u/L
ASPARTATE AMINOTRANSFERASE [2]: 83 u/L
BLOOD UREA NITROGEN [2]: 13.5 mg/dL
CARBON DIOXIDE [2]: 27.17 mmol/L
CHLORIDE [2]: 98.5 MEQ/L
CHOLESTEROL [2]: 66.83 mg/dL
CREATINE PHOSPHOKINASE [2]: 256.17 u/L
CREATININE [2]: 0.19 mg/dL
GLUCOSE [2]: 171.33 mg/dL
LACTATE DEHYDROGENASE [2]: 91.5 u/L
LIPASE [2]: 10.5 u/L
PHOSPHORUS [2]: 8.72 mg/dL
POTASSIUM [2]: 5.34 MEQ/L
SODIUM [2]: 142.53 MEQ/L
TOTAL BILIRUBIN [2]: 0.2 mg/dL
TOTAL PROTEIN [2]: 6.05 G/DL
URIC ACID [2]: 0.6 mg/dL
ABSOLUTE BASOPHIL [3]: 0 CELLS/uL
ABSOLUTE EOSINOPHIL [3]: 0 CELLS/uL
ABSOLUTE LYMPHOCYTE [3]: 7022 CELLS/uL
ABSOLUTE MONOCYTE [3]: 162.33 CELLS/uL
ABSOLUTE SEGMENTED NEUTROPHIL [3]: 715.67 CELLS/uL
BASOPHIL [3]: 0%
EOSINOPHIL [3]: 0%
ERYTHROCYTE COUNT [3]: 5.13 x10E6/uL
HEMATOCRIT [3]: 32.6%
HEMOGLOBIN [3]: 12.9 G/DL
LEUKOCYTE COUNT [3]: 7.9 x10E3/uL
LYMPHOCYTE [3]: 88.67%
MEAN CORPUSCULAR HEMOGLOBIN [3]: 25.13 pg
MEAN CORPUSCULAR HEMOGLOBIN CONCENTRATION [3]: 39.57 G/DL
MEAN CORPUSCULAR VOLUME [3]: 63.53 fL
MONOCYTE [3]: 2%
NEUTROPHIL [3]: 9.33%
NUCLEATED RED BLOOD CELLS [3]: 0 /100WBC
PLATELET COUNT [3]: 1191.67 x10E3/uL
ALANINE AMINOTRANSFERASE [3]: 62 u/L
ALBUMIN [3]: 4.1 G/DL
ALKALINE PHOSPHATASE [3]: 340 u/L
ASPARTATE AMINOTRANSFERASE [3]: 77.67 u/L
BLOOD UREA NITROGEN [3]: 15.33 mg/dL
CARBON DIOXIDE [3]: 33.67 mmol/L
CHLORIDE [3]: 98.67 MEQ/L
CHOLESTEROL [3]: 85 mg/dL
CREATINE PHOSPHOKINASE [3]: 201.67 u/L
CREATININE [3]: 0.15 mg/dL
GLUCOSE [3]: 165 mg/dL
LACTATE DEHYDROGENASE [3]: 82.67 u/L
LIPASE [3]: 10 u/L
PHOSPHORUS [3]: 11 mg/dL
POTASSIUM [3]: 5.65 MEQ/L
SODIUM [3]: 145.13 MEQ/L
TOTAL BILIRUBIN [3]: 0.2 mg/dL
TOTAL PROTEIN [3]: 5.9 G/DL
URIC ACID [3]: 0.73 mg/dL
